According to ChEMBL document CHEMBL1150638, “An unusual sesquiterpene derivative from Ferula kuhistanica” (J Nat Prod, 2002):
pIC50: −log10 of the molar value. Calls of active or inactive are those of the source. The rule behind the calls is not given here.

Experiments:
Staphylococcus aureus [1] = test: Antibacterial activity against methicillin-sensitive Staphylococcus aureus; type: functional, organism-based
Staphylococcus aureus [2] = test: Antibacterial activity against methicillin-resistant Staphylococcus aureus; type: functional, organism-based
HCT-116 = test: Cytotoxicity against human HCT116 cells after 2 days by MTT assay; type: functional, cell-based; details: HCT-116, 48 h

`CC(=O)CC[C@@]1(C)CC[C@]2(C(C)C)O[C@@H](O)[C@H](OC(=O)c3ccc(O)cc3)[C@H]12` [KUHISTAFERONE] was tested, and the Activity (Staphylococcus aureus [1]) was “inactive”, the Activity (Staphylococcus aureus [2]) was “inactive” and the pIC50 (HCT-116) was 3.74.
